Among the data in PubChem BioAssay (NCI) are GI50 and TGI values, retold here.

Among the test systems are SNB-75 CNS; UACC-257 melanoma; CAKI-1 renal; SK-OV-3 ovarian; HT29 colon; SN12C renal; OVCAR-4 ovarian; HOP-92 NSCLC; ACHN renal; COLO 205 colon.
Common to all, as to assay: DTP human tumour cell line panel, 48 h

“And” between values parts separate entries of the source, which are not always exact repeats. Equal entries are not always repeated.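 In this assay, cells in 96-well plates receive the compound at five concentrations for 48 hours. Endpoints are linearly interpolated between the surrounding concentrations. GI50 marks 50% less growth. TGI: concentration producing complete growth inhibition.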 Where a SMILES comes first, the peptide text is derived from it. [ ]: non-standard residue; d: D form. The star is where a group is joined. ξ: configuration not given here. X3 = COc1ccc(C(N*)c2ccc(OC)cc2)cc1; NMeF = CN[C@@H](Cc1ccccc1)C(=O)O; NMeD = CN[C@@H](CC(=O)O)C(=O)O; NMeV = CN[C@H](C(=O)O)C(C)C; ξNMeV = CNC(C(=O)O)C(C)C; Boc = CC(C)(C)OC(=O)*; ξNMeA = CNC(C)C(=O)O; ξV = CC(C)C(N)C(=O)O

The GI50 is the concentration at which growth is held to half of that of the control. A word on the TGI: it is the concentration giving total growth inhibition.

On to `CN(C)c1cc(NN=C(c2ccc(O)cc2)c2ccc(O)cc2)c([N+](=O)[O-])cc1[N+](=O)[O-]`, for which the GI50 with SNB-75 CNS is 10.4 µM; with UACC-257 melanoma it was 13.4 µM; with CAKI-1 renal, 6.76 µM; with SK-OV-3 ovarian it was 14.4 µM; in the experiment with HT29 colon it was 10 µM; in the experiment on SN12C renal, 10.4 µM. Also, the GI50 is 5.77 µM in the experiment with OVCAR-4 ovarian, 10.2 µM with HOP-92 NSCLC, 2.36 µM with ACHN renal and 8.52 µM in the experiment with COLO 205 colon. For the same compound, the total growth inhibition concentration (TGI) in the experiment on SNB-75 CNS amounted to 25 µM; in the experiment on UACC-257 melanoma, 27.3 µM; with CAKI-1 renal it was 20.2 µM; with SK-OV-3 ovarian, 36.6 µM; with HT29 colon it was 23.7 µM; in the experiment on SN12C renal, 23.7 µM. Also, the TGI amounted to 28 µM in the experiment on OVCAR-4 ovarian, 25.4 µM in the experiment with HOP-92 NSCLC, 13.3 µM with ACHN renal and 24.7 µM in the experiment on COLO 205 colon.

With `CCN(Cc1ccc(F)cc1)c1cc(Cl)c(CO)c(Cl)c1`, the GI50 is 12.8 µM in the experiment with SNB-75 CNS; 6.56 µM in the experiment with UACC-257 melanoma; 13.5 µM in the experiment on CAKI-1 renal; 15.2 µM with SK-OV-3 ovarian; 16.2 µM in the experiment on HT29 colon; 13.3 µM in the experiment on SN12C renal. Moreover, the GI50 with OVCAR-4 ovarian is 10.7 µM; in the experiment on HOP-92 NSCLC, 3.61 µM; in the experiment on ACHN renal it was 14.9 µM; with COLO 205 colon, 17.3 µM. For the same compound, the TGI is 25.9 µM in the experiment on SNB-75 CNS; 20.4 µM with UACC-257 melanoma; 32.1 µM in the experiment with CAKI-1 renal; 28.7 µM with SK-OV-3 ovarian; 33.2 µM with HT29 colon; 26.8 µM in the experiment on SN12C renal. Besides, the TGI stood at 22.5 µM in the experiment with OVCAR-4 ovarian, 18.1 µM in the experiment on HOP-92 NSCLC, 29.2 µM in the experiment on ACHN renal and 31.4 µM in the experiment on COLO 205 colon.

With `COc1ccc(/C=N/NC(=O)c2cccc3cc[nH]c23)cc1O`, the GI50 in the experiment with SNB-75 CNS was 0.24 µM; in the experiment on UACC-257 melanoma it was greater than 42.8 µM; in the experiment with CAKI-1 renal, 0.192 µM; in the experiment with SK-OV-3 ovarian, 9.87 µM; in the experiment on HT29 colon it was 4.32 µM; in the experiment on SN12C renal, 0.493 µM. Moreover, the GI50 in the experiment on OVCAR-4 ovarian is 10.3 µM; in the experiment with HOP-92 NSCLC, 18.5 µM; in the experiment with ACHN renal, 4.19 µM; in the experiment with COLO 205 colon it was 13.9 µM. Further, the concentration for total growth inhibition (TGI) in the experiment on SNB-75 CNS is greater than 100 µM; in the experiment on UACC-257 melanoma, greater than 100 µM; in the experiment on CAKI-1 renal it was greater than 49 µM; in the experiment on SK-OV-3 ovarian it was greater than 100 µM; in the experiment on HT29 colon it was greater than 100 µM; in the experiment on SN12C renal, greater than 40.9 µM. Besides, the total growth inhibition concentration (TGI) was greater than 100 µM with OVCAR-4 ovarian, greater than 74.6 µM in the experiment on HOP-92 NSCLC, greater than 100 µM in the experiment with ACHN renal and greater than 80.7 µM with COLO 205 colon.

Turning to `CC(C)(C)c1cc2ccc(C(N)=O)cc2c(=O)[nH]1`, the TGI in the experiment on SNB-75 CNS, in the experiment with UACC-257 melanoma, in the experiment with CAKI-1 renal, with SK-OV-3 ovarian, in the experiment with HT29 colon and in the experiment with SN12C renal was greater than 100 µM throughout. The TGI in the experiment on OVCAR-4 ovarian, in the experiment on HOP-92 NSCLC, in the experiment with ACHN renal and in the experiment on COLO 205 colon was greater than 100 µM each time.

Take `COc1ccc(C(NC(=O)C[C@@H](C(=O)N(C)C(C)C(=O)O)N(C)C(=O)[C@@H]2CCCN2C(=O)[C@H](C(C)C)N(C)C(=O)C(C(C)C)N(C)C(=O)[C@H](Cc2ccccc2)N(C)C(=O)C(NC(=O)OC(C)(C)C)C(C)C)c2ccc(OC)cc2)cc1` (some centres undefined) (Boc-[ξV][NMeF][ξNMeV][NMeV]P[NMeD](X3)[ξNMeA]-OH): the GI50 in the experiment on SNB-75 CNS was 15.8 µM; in the experiment with UACC-257 melanoma, 17.3 µM; in the experiment on CAKI-1 renal, 22.9 µM; in the experiment on SK-OV-3 ovarian it was 19.2 µM; in the experiment on SN12C renal, 19.1 µM; in the experiment on OVCAR-4 ovarian, 24.8 µM. For the same compound, the GI50 was 15.8 µM in the experiment with HOP-92 NSCLC, 10.6 µM with ACHN renal and 17.2 µM in the experiment on COLO 205 colon. Moreover, the concentration for total growth inhibition (TGI) was 17.6 µM and 30.7 µM with SNB-75 CNS; 23 µM and 32.2 µM in the experiment on UACC-257 melanoma; 37.5 µM in the experiment on CAKI-1 renal; > 37.5 µM and 33.3 µM in the experiment on SK-OV-3 ovarian; 37.2 µM and 32.4 µM in the experiment with HT29 colon; 37.5 µM and 38.9 µM in the experiment on SN12C renal. Moreover, the TGI with OVCAR-4 ovarian is 37.5 µM and 64.5 µM; in the experiment on HOP-92 NSCLC, 23.8 µM and 29.2 µM; in the experiment with ACHN renal, 37.5 µM and 22.5 µM; in the experiment on COLO 205 colon, 32.1 µM and 30.9 µM.

Regarding `N#Cc1c[nH]n2c(N=Nc3ccc(Cl)cc3)c(O)nc12`, the GI50 in the experiment on SNB-75 CNS was 40.7 µM; in the experiment with UACC-257 melanoma it was 20.1 µM; in the experiment on CAKI-1 renal, 85.9 µM; in the experiment on SK-OV-3 ovarian, 37 µM; with HT29 colon it was 50.2 µM; in the experiment with SN12C renal, 24.1 µM. Also, the GI50 in the experiment with OVCAR-4 ovarian was 57.3 µM; in the experiment with HOP-92 NSCLC it was 13.1 µM; in the experiment on ACHN renal, 24.7 µM; with COLO 205 colon, 29 µM. In addition, the TGI in the experiment on SNB-75 CNS is greater than 100 µM; in the experiment on UACC-257 melanoma, 57.9 µM; in the experiment on CAKI-1 renal it was greater than 100 µM; with SK-OV-3 ovarian, greater than 100 µM; in the experiment with HT29 colon it was greater than 100 µM; in the experiment on SN12C renal, 57.3 µM. Further, the TGI in the experiment on OVCAR-4 ovarian was greater than 100 µM; in the experiment with HOP-92 NSCLC it was 52.2 µM; with ACHN renal, 62 µM; in the experiment on COLO 205 colon it was greater than 100 µM.
